The values below are quoted from earlier work in patent US20180271924A1, “COMPOUND AND METHOD FOR REDUCING INFLAMMATION, PAIN, ALLERGY, FLU AND COLD SYMPTOMS” (priority 2018, published 2018).

≈ marks a conversion by molar mass, not a printed value. Where two headings read alike, the source gives them in different places.

The conditions of series [1]: DPPH.
The subject of series [2] is mu-, delta- and kappa-opioid binding sites.
The target of series [3] is ORL1-binding sites (Cavia porcellus, UniProt P47748).
ORL1-binding sites, sequence (P47748 whole entry): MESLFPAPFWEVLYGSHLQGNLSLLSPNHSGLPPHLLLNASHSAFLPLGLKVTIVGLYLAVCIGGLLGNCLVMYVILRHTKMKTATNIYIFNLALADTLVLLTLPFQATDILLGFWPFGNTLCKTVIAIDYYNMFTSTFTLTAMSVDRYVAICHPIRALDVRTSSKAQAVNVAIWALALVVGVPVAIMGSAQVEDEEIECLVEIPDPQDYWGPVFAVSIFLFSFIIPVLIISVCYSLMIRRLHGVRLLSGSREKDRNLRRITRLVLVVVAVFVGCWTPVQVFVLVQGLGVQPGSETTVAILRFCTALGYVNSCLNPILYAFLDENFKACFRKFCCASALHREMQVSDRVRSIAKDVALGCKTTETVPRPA
The test system of series [4] is opioid receptors. To be noted: antagonised by naloxone.
For series [5] the following is noted: for time of peak analgesic effect: pseudoakuammigine 5.0 mg/kg p.o., morphine 1.0 mg/kg s.c., indomethacin 2.5 mg/kg p.o.
Assay in series [6]: not given
This is another data set of the same source.

The conditions of series [7]: extract 100, 300, 500 mg/kg; diazepam 0.1-1 mg/kg; caffeine 10, 30, 100 mg/kg.
For series [8] the following is noted: extract 100, 300, 500 mg/kg; diazepam 0.1-1 mg/kg.
The conditions of series [9]: extract 100, 300, 500 mg/kg.
Assay in series [10]: not given
This is another data set of the same source.

Assay in series [11]: not given
The source holds these as a separate data set.

For series [12] the following is noted: human studies.
For series [13] the following is noted: for pain relief, THC versus codeine: 36 cancer pain patients, 20 mg THC, 120 mg codeine.
The conditions of series [14]: 5 mg THC; for analgesic effect: 50 mg codeine.
The conditions of series [15]: 50 mg THC daily.
The conditions of series [16]: anesthetized rats; reversed by naloxone.
For series [17] the following is noted: mitragynine 2 mg/mL.
Assay in series [18]: not given
This is another data set of the same source.

For series [19] the following is noted: extract 100-500 mg/kg; diclofenac 10-100 mg/kg; morphine 1-10 mg/kg.
For series [20] the following is noted: extract 100, 300, 500 mg/kg; diclofenac 10, 30, 100 mg/kg; 20 minutes observation.
The conditions of series [21]: extract 100, 300, 500 mg/kg. This is another data set of the same source.
For series [22] the following is noted: 0.5 mg/kg.
The conditions of series [23]: 20.0 mg/kg.
Series [24] has as its system dividing and non-dividing cells.
The conditions of series [25]: extract 300, 500 mg/kg.
The conditions of series [26]: 200 mg/kg.
The conditions of series [27]: mouse, in vivo.
The test system of series [28] is mast cells. To be noted: induced by compound 48/80.
The conditions of series [29]: subcutaneous.
Assay in series [30]: not given
This is another data set of the same source.

`O=C1O[C@H]([C@@H](O)CO)C(O)=C1O` [ascorbic acid]: the “EC50 (free radical scavenging)” value in series [1] was 1.07 µg/mL (≈ 6.08 µM).
As for `C/C=C1/CN2CC[C@@]34c5ccccc5N(C)[C@]35OC[C@@]4(C(=O)OC)[C@H]1C[C@H]25` [pseudoakuammigine], the “opioid binding (words)” value in series [2] is “low affinity”. The “opioid binding (words)” value in [2] (listed as Pseudoakuammigine) is “bound equally to both mu and delta-opioid binding sites”. For the same molecule, the “affinity for ORL1-binding sites (words)” value in series [3] is reported as “little affinity”. The “effect on electrically-induced contractions” value in [4] is “inhibited the electrically-induced contractions”. Besides, the “maximal inhibitory effect (anti-inflammatory)” value (50 mg kg, p.o.) was 44%. Also, the “activity on carrageenan-induced paw oedema” value (1.0, 5.0, 50 mg/kg p.o.) is listed as “dose-dependent inhibitory activity”. Besides, in series [5] (on molar basis), the “ED50 (analgesic)” value is given as 10 muM, the “times less potent than indomethacin as an analgesic” value is on record as 1.6 times and the “times less potent than morphine as an analgesic” value is 3.5 times. The “time of peak analgesic effect” value in [5] was 180 min.
For the molecule `CCCCCc1cc(O)c2c(c1)OC(C)(C)[C@@H]1CCC(C)=C[C@@H]21` [Delta 1-THC], the “dose of maximal effect in the PBQ test” value in [6] (oral) was 10 mg/kg.
As for `CN1C(=O)CN=C(c2ccccc2)c2cc(Cl)ccc21` [diazepam], the “effect in open arm test” value in series [7] is “dose dependently and significantly increased the percentage of open arm entries”. For the same molecule, in [8], the “frequency of central zone entries” value is listed as “dose dependently increased the frequency of central zone entries”.
`CN1[C@@H]2CC[C@H]1C[C@@H](OC(=O)C(CO)c1ccccc1)C2` (some centres unmarked) [Atropine]: in series [9], the “protection against acetylcholine-induced bronchoconstriction and cough” value is recorded as “significantly (P<0.05-0.0001) protected”.
Regarding `COc1ccc2cc3[n+](cc2c1OC)CCc1cc2c(cc1-3)OCO2` [Umbellatine, umbellatine], the “analgesic activity, tail-flick” value in [10] (100 mg/kg) is reported as “clearly active”; in [10] (200 and 300 mg/kg), “comparable in efficacy to those of 6 mg/kg of morphine”. The “analgesic activity, hot plate” value in series [11] (10-300 mg/kg) was “dose-dependently active”; in series [11] (200 and 300 mg/kg) it was “comparable in efficacy to that obtained with 6 mg/kg of morphine”.
Consider `CCCCCc1cc(O)c2c(c1)OC(C)(C)[C@@H]1CCC(C)=C[C@@H]21` [THC, delta-9-tetrahydrocannabinol], for which, in [12], the analgesia versus placebo entry was “significantly superior to placebo” and the “time of peak analgesia” value is on record as “around 5 hours”. In addition, the “pain relief versus placebo” value in series [13] (10 cancer pain patients, at doses of 15 and 20 mg) is listed as “pain relief significantly superior to placebo”. Moreover, in series [13], the “pain relief, THC versus codeine” value is “equally effective”. Besides, in series [14], the effect on spasticity entry is reported as “significant effect on spasticity” and the analgesic effect entry is given as “analgesic effect in comparison with placebo”. In addition, the morphine requirement result in series [15] is listed as “morphine requirement was significantly reduced (P<0.01)”.
Take `CC[C@@H]1CN2CCc3c([nH]c4cccc(OC)c34)[C@@H]2C[C@@H]1/C(=C\OC)C(=O)OC` [mitragynine]: the gastric acid secretion entry in [16] is “inhibition of 2-deoxy-D-glucose-stimulated gastric acid secretion in a dose dependent manner”. Further, in series [17], the “nerve conduction, compound nerve action potential” value is “blocked the nerve conduction”. Moreover, in series [18] (dose levels of 800-900 mg/kg in rodents), the toxicity entry is “no toxicity”. In addition, the lethality result in series [18] (oral 200 mg/kg, rats) was “lethal effects”.
Consider `O=C(O)Cc1ccccc1Nc1c(Cl)cccc1Cl` [diclofenac], for which the “tail withdrawal latency / antinociceptive effect” value in series [19] was “increased tail withdrawal latencies”. In addition, the abdominal writhes result in series [20] was “suppressed the writhing”.
For `C=C(C)[C@@H]1CCC(C)=C[C@H]1c1c(O)cc(CCCCC)cc1O` [CBD, cannabidiol], the “effectiveness at inhibition of PBQ-induced writhing” value in [6] (oral, 100 mg/kg) was “most effective”.
With `COC(=O)C1=CO[C@@H](C)[C@@H]2CN3CCc4c([nH]c5ccccc45)[C@H]3C[C@H]12` [akuammigine], the “opioid binding (words)” value in [2] is “no opioid binding”; in [2] (listed as Akuammigine), “no affinity for any of the opioid binding sites”.
With `Cn1c(=O)c2c(ncn2C)n(C)c1=O` [caffeine], the “effect in open arm test” value in [7] was “anxiogenic effect”.
For the molecule `COc1ccc2c(c1)c(CC(=O)O)c(C)n2C(=O)c1ccc(Cl)cc1` [indomethacin, reference compound], the “ED50 (analgesic)” value in series [5] (on molar basis) is recorded as 6.3 muM. For the same molecule, the “time of peak analgesic effect” value in series [5] is on record as 60 min.
Consider `COc1ccc2c3c1O[C@H]1[C@@H](O)CC[C@H]4[C@@H](C2)N(C)CC[C@@]341` [dihydrocodeine], for which, in series [21], the cough count result was “dose-dependently reduced (P<0.05) cough count” and the latency of cough result is recorded as “increased significantly (P<0.01) the latency of cough”.
Consider `CN1CC[C@]2(c3cccc4c3N[C@@H]3N(C)CC[C@]43[C@@]34CCN(C)[C@@H]3Nc3ccccc34)c3ccccc3N[C@H]12` [hodgkinsine], for which the “analgesic activity, tail-flick” value in series [22] is “comparable to that of 6.0 mg/kg of morphine”. In addition, the “analgesic activity, hot-plate” value in series [23] is “comparable with 6.0 mg/kg of morphine”. For the same molecule, the cytotoxicity result in series [24] was “low cytotoxicity”.
Regarding `COc1ccc(CN(CCN(C)C)c2ccccn2)cc1` [mepyramine], the “histamine-induced bronchoconstriction and cough” value in series [25] is “reduced significantly (P<0.01-0.0001) bronchoconstriction and cough induced by histamine”.
With `COc1ccc2c3c1O[C@H]1[C@@H](O)C=C[C@H]4[C@@H](C2)N(C)CC[C@@]341` [codeine], in [13], the “pain relief, THC versus codeine” value is listed as “equally effective”. Besides, in [14], the analgesic effect result is “analgesic effect in comparison with placebo”.
`CCCCCc1cc(O)c2c(c1)OC(C)(C)c1ccc(C)cc1-2` [CNB, cannabinol]: in series [6] (doses higher than 10 mg/kg), the “inhibition of PBQ-induced writhing” value was 40%.
`CCCCCc1cc(O)cc(O)c1` [olivetol]: the “dose of maximal effect in the PBQ test” value in series [6] (oral) is “about 100 mg/kg”.
On to `CN1CC[C@]23c4c5ccc(O)c4O[C@H]2[C@@H](O)C=C[C@H]3[C@H]1C5` [morphine, reference compound], for which the “tail withdrawal latency / antinociceptive effect” value in [19] is on record as “significant (P<0.0001) dose dependent increase in tail withdrawal latencies”. For the same molecule, in series [5] (on molar basis), the “ED50 (analgesic)” value is on record as 2.9 muM. Further, in series [5], the “time of peak analgesic effect” value is recorded as 30 min.
For the molecule `CC(=O)Oc1ccccc1C(=O)O` [aspirin], the mean percentage antipyrexia in series [26] is 29.0%.
`O=C(O)c1cc(=O)c2c(OCC(O)COc3cccc4oc(C(=O)O)cc(=O)c34)cccc2o1` [sodium cromoglicate]: the “tracheal phenol red secretion (muco-suppressant)” value in series [27] is given as “caused a reduction (P<0.01) in tracheal phenol red secretion”. Further, the mast cell degranulation result in series [28] is “reduce significantly (P<0.01) mast cell degranulation”.
Turning to `CC[C@@H]1CN2CC[C@@]3(O)C(=Nc4cccc(OC)c43)[C@@H]2C[C@@H]1/C(=C\OC)C(=O)OC` [7-hydroxymitragynine], the gastrointestinal transit result in series [29] is given as “inhibition of the gastrointestinal transit”.
With `CC(=O)Oc1cc(O[C@H](C)CCCc2ccccc2)cc2c1[C@@H]1C[C@H](O)CC[C@H]1[C@H](C)N2` [Levonantradol], in [12], the analgesia versus placebo entry was “superior to placebo” and the sedation result is given as “almost half the patients reported sedation”. For the same molecule, the “pain relief versus placebo” value in series [30] (1.5, 2, 2.5, 3 mg intramuscular, 56 patients) is given as “all doses were significantly superior to placebo”. For the same molecule, the “patients reporting at least one side-effect” value in [30] (in vivo) was 57%.
